Test results from publication PMC12586182 (Frontiers in Oncology, 2025).

Assays:
JAK3 = target: T1, JAK3 (Homo sapiens, UniProt P52333); experiment: Kinase panel profiling at 1 µmol/L (mobility shift assay, Carna); assay type: biochemical; settings: 1 µmol/L of BTK inhibitor
T1 construct: purchased Carna Biosciences
T1 sequence (P52333 1-1124): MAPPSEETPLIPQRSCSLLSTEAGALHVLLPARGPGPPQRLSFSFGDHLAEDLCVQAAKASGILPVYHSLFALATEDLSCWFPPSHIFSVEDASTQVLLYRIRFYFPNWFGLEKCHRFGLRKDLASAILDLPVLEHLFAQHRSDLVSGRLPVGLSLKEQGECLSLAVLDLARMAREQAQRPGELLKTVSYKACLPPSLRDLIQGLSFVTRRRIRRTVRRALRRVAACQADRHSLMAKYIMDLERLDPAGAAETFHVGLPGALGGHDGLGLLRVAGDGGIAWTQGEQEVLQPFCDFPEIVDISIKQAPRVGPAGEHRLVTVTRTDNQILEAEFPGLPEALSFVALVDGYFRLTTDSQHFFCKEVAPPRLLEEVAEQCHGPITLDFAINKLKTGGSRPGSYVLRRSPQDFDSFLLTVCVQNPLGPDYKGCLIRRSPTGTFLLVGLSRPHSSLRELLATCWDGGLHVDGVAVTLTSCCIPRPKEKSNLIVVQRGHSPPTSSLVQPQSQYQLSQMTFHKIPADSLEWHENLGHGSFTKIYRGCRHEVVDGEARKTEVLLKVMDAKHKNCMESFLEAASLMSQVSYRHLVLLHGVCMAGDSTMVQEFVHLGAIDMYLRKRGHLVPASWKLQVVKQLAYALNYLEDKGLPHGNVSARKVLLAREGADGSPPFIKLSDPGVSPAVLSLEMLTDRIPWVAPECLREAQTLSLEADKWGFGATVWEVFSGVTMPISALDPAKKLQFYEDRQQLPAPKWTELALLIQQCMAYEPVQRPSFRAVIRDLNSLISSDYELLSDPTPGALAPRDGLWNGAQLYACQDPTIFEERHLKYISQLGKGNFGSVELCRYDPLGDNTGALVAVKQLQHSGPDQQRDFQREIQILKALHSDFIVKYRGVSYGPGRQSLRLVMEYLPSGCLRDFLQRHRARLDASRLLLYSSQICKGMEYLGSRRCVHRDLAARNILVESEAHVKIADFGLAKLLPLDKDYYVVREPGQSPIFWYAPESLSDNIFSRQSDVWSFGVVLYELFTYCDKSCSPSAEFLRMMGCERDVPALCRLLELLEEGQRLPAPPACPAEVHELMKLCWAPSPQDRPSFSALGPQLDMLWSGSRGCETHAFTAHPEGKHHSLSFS

NuaK1 = target: T2, NuaK1 (Homo sapiens, UniProt O60285); experiment: as above; assay type: biochemical; settings: 1 µmol/L of BTK inhibitor
T2 construct: purchased Carna Biosciences
T2 sequence (O60285 1-661): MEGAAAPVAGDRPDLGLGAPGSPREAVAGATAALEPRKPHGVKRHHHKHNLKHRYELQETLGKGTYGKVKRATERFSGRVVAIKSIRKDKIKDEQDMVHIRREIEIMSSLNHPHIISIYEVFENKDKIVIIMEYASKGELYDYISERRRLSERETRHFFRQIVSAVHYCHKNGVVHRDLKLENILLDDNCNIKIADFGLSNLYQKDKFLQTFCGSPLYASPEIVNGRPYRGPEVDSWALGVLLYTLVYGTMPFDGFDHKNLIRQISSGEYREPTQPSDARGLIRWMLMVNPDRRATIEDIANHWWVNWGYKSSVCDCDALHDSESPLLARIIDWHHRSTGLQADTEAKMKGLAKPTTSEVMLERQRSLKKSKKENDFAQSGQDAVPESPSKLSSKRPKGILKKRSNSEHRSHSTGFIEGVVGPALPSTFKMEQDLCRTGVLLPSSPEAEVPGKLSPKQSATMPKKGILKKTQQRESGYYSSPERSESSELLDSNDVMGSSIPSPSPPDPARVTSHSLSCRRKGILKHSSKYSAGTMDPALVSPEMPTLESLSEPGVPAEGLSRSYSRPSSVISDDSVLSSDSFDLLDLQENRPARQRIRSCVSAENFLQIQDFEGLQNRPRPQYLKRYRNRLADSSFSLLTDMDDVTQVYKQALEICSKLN

TRKC = target: T3, TRKC (Homo sapiens, UniProt Q16288); experiment: as above; assay type: biochemical; settings: 1 µmol/L of BTK inhibitor
T3 construct: purchased Carna Biosciences
T3 sequence (Q16288 32-839): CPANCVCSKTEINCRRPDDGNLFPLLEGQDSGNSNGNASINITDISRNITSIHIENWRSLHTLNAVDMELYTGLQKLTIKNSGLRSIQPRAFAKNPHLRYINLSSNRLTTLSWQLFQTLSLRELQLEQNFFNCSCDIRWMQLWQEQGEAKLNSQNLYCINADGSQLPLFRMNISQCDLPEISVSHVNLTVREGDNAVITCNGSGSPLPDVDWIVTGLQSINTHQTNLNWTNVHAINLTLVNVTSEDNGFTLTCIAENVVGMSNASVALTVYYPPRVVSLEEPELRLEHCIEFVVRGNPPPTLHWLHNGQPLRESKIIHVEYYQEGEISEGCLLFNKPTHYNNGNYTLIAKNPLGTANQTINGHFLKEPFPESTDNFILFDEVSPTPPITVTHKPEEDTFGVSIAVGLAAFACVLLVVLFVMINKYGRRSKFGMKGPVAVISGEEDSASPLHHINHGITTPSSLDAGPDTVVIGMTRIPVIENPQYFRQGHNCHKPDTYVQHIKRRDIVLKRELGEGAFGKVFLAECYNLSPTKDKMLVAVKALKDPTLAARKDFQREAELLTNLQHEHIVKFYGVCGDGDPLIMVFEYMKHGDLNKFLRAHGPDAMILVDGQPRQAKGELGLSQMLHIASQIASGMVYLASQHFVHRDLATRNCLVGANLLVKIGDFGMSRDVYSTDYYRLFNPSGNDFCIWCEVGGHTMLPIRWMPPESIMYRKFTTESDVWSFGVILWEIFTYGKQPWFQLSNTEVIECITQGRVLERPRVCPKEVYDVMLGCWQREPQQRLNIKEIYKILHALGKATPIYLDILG

PKACγ = target: T4, PKACγ (Homo sapiens, UniProt P22612); experiment: as above; assay type: biochemical; settings: 1 µmol/L of BTK inhibitor
T4 construct: purchased Carna Biosciences
T4 sequence (P22612 whole entry): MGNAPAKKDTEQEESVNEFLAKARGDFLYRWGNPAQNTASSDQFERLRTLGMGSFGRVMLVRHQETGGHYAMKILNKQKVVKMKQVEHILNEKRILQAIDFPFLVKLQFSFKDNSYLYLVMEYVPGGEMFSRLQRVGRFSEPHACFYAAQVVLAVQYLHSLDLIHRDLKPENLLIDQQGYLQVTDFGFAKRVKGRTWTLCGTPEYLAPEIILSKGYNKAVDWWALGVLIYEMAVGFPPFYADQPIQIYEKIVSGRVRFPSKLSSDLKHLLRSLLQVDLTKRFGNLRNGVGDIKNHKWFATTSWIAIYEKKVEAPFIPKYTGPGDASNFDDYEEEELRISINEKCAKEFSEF

HER4 = target: T5, HER4 (Homo sapiens, UniProt Q15303); experiment: as above; assay type: biochemical; settings: 1 µmol/L of BTK inhibitor
T5 construct: purchased Carna Biosciences

FGFR2 = FGFR2 (Homo sapiens, UniProt P21802); experiment: Kinase enzyme activity assay (mobility shift assay, Carna); settings: for Percentage inhibition of kinase enzyme activity: FGFR2, 1 µmol/L of BTK inhibitor
FGFR2, sequence (P21802 22-821): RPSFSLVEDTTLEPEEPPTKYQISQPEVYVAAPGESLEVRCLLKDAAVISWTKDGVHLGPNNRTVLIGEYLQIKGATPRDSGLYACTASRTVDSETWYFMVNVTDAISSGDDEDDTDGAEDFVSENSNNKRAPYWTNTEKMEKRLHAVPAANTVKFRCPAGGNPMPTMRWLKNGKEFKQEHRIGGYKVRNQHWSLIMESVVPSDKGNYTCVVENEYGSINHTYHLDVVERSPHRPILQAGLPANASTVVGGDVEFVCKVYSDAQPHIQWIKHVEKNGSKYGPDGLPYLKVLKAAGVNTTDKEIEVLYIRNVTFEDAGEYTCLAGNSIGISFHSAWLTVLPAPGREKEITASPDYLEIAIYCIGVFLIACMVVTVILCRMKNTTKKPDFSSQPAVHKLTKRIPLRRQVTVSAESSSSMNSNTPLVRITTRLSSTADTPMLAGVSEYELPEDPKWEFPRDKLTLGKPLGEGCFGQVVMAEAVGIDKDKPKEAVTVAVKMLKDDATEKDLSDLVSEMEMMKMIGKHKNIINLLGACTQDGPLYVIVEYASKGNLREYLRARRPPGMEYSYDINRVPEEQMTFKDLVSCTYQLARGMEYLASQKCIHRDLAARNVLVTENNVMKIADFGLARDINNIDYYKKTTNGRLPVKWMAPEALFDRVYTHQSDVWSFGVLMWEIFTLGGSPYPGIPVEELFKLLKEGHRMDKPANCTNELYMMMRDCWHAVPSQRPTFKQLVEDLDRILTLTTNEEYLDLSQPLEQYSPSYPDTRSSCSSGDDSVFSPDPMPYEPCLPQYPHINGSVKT

FGFR3 = FGFR3 (Homo sapiens, UniProt P22607); experiment: as above; settings: for Percentage inhibition of kinase enzyme activity: FGFR3, 1 µmol/L of BTK inhibitor
FGFR3, sequence (P22607 23-806): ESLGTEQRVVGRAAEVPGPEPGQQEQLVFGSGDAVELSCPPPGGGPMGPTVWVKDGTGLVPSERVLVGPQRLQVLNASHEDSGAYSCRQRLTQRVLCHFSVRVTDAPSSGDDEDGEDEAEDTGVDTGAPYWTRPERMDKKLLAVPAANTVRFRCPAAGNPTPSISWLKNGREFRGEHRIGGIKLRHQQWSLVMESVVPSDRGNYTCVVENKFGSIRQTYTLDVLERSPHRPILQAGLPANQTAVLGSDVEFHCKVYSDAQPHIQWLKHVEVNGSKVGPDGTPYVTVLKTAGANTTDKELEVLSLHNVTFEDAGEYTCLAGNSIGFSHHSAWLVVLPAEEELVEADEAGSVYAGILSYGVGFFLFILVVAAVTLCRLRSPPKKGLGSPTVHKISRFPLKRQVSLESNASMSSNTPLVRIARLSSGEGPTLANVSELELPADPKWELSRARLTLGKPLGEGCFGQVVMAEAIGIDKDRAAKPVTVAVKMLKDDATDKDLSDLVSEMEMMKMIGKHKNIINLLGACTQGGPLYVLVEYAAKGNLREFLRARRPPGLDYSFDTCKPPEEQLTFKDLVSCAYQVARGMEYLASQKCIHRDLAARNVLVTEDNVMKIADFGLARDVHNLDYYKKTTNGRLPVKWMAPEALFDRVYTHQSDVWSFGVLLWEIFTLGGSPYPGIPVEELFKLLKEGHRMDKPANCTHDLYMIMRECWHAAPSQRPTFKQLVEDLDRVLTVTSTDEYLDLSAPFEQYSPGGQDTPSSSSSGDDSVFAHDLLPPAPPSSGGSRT

CK1α = target: T6, CK1α (Homo sapiens, UniProt P48729); experiment: Kinase panel profiling at 1 µmol/L (mobility shift assay, Carna); assay type: biochemical; settings: 1 µmol/L of BTK inhibitor
T6 construct: purchased Carna Biosciences
T6 sequence (P48729 whole entry): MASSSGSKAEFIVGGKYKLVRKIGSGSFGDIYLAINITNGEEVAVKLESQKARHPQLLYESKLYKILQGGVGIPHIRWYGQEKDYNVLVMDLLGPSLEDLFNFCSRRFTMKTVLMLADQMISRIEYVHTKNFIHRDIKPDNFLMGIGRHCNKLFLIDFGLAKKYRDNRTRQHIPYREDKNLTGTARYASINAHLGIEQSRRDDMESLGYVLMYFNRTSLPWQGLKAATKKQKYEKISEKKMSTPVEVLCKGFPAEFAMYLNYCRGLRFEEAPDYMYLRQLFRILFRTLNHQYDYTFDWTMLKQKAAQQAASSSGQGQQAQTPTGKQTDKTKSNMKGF

CaMK4 = target: T7, CaMK4 (Homo sapiens, UniProt Q16566); experiment: as above; assay type: biochemical; settings: 1 µmol/L of BTK inhibitor
T7 construct: purchased Carna Biosciences
T7 sequence (Q16566 1-473): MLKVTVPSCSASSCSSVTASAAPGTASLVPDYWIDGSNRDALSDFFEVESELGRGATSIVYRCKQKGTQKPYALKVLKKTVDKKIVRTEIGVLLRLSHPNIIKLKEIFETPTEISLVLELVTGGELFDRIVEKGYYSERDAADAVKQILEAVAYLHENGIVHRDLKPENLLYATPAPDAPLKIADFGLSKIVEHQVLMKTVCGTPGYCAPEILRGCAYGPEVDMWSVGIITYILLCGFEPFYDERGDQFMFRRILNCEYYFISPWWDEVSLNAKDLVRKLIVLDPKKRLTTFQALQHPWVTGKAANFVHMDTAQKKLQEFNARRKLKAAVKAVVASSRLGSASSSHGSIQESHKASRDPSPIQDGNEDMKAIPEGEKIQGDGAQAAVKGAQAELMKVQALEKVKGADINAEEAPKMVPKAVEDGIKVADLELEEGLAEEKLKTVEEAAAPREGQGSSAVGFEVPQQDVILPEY

PKCβ1 = target: T8, PKCβ1 (Homo sapiens, UniProt P05771); experiment: as above; assay type: biochemical; settings: 1 µmol/L of BTK inhibitor
T8 construct: purchased Carna Biosciences
T8 sequence (P05771 whole entry): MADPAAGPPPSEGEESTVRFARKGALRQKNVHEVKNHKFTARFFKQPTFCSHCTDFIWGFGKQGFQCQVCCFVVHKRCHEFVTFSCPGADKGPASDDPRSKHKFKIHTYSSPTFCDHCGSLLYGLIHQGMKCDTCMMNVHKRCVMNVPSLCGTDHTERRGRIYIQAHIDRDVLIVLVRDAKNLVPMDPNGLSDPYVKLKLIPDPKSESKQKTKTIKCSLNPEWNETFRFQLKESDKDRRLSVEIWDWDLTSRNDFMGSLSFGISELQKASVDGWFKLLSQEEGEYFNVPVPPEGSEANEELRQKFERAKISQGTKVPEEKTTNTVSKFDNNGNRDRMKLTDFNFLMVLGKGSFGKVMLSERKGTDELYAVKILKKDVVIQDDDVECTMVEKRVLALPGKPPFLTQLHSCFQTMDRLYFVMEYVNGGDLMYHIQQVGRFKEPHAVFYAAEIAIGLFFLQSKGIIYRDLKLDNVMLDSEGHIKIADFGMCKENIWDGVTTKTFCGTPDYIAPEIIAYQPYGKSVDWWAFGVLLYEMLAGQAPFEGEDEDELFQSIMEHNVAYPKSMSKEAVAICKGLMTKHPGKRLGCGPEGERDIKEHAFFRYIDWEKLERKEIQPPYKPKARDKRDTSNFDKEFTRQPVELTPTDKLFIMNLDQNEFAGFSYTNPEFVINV

SRM = target: T9, SRM (Homo sapiens, UniProt Q9H3Y6); experiment: as above; assay type: biochemical; settings: 1 µmol/L of BTK inhibitor
T9 construct: purchased Carna Biosciences
T9 sequence (Q9H3Y6 whole entry): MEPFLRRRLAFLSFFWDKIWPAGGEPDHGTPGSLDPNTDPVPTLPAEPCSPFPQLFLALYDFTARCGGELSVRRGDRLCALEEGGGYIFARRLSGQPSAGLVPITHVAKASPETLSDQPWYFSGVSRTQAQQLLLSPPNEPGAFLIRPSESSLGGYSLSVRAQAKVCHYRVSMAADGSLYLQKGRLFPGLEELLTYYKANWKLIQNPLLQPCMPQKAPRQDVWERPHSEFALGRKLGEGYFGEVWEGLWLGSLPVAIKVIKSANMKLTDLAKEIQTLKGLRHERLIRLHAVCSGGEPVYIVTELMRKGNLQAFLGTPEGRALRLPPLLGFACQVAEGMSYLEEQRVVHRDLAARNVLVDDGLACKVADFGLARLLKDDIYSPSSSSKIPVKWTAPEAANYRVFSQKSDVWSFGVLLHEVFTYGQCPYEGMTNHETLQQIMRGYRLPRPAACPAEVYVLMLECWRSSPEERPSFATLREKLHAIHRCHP

SMILES | Percentage inhibition of kinase enzyme activity (JAK3) | Percentage inhibition of kinase enzyme activity (NuaK1) | Percentage inhibition of kinase enzyme activity (TRKC) | Percentage inhibition of kinase enzyme activity (PKACγ) | Percentage inhibition of kinase enzyme activity (HER4) | Percentage inhibition of kinase enzyme activity (FGFR2) | Percentage inhibition of kinase enzyme activity (FGFR3) | Percentage inhibition of kinase enzyme activity (CK1α) | Percentage inhibition of kinase enzyme activity (CaMK4) | Percentage inhibition of kinase enzyme activity (PKCβ1) | Percentage inhibition of kinase enzyme activity (SRM) | IC50 (FGFR2) | IC50 (FGFR3)
CC#CC(=O)N1CCC[C@H]1c1nc(-c2ccc(C(=O)Nc3ccccn3)cc2)c2c(N)nccn12 [acalabrutinib] | -1.00% | -3.51% | 11.12% | 1.68% | 77.61% | -6.22% | -1.31% | 10.47% | -8.42% | -10.97% | 39.49% |  | 
C=CC(=O)N1CCC[C@@H](n2nc(-c3ccc(Oc4ccccc4)cc3)c3c(N)ncnc32)C1 [ibrutinib] | 90.92% | 6.70% | 23.90% | 4.90% | 98.60% | 81.29% | 81.85% | -1.93% | 2.93% | -2.90% | 102.20% |  | 
O=C(c1ccc(Oc2ccccc2)cc1Cl)c1c[nH]c2ncnc(N[C@@H]3CC[C@@H](CO)OC3)c12 [nemtabrutinib] | 97.48% | 3.95% | 99.56% | 11.12% | 95.14% | 45.29% | 86.25% | 33.46% | 5.83% | -3.07% | 102.16% | 34 nM | 70.1 nM
COc1ccc(F)cc1C(=O)NCc1ccc(-c2nn([C@@H](C)C(F)(F)F)c(N)c2C(N)=O)cc1 [pirtobrutinib] | -1.25% | 4.02% | 5.23% | 1.36% | 69.88% | 12.14% | 1.40% | 9.63% | -9.89% | 5.78% | 18.61% |  | 
C=CC(=O)N1CCC([C@@H]2CCNc3c(C(N)=O)c(-c4ccc(Oc5ccccc5)cc4)nn32)CC1 [zanubrutinib] | 10.83% |  |  |  | 2.98% | 1.70% | 6.11% |  |  |  | 57.79% |  | 
